Consider eleven compounds from patent US20130101615A1, “METHODS FOR PREVENTING OR TREATING A DISEASE OR CONDITION ASSOCIATED WITH MYCOBACTERIUM AVIUM SUBSPECIES PARATUBERCULOSIS” (priority 2005, published 2013).

“Also recorded” adds a separate entry of the source. Where two headings read alike, the source gives them in different places. Some results are limits rather than exact numbers.

Assay [1] has as its system MAP Dominic (ATCC 43545), isolated from human with Crohn's disease. In kind it is cell-based, Mycobacterium avium subspecies paratuberculosis. Conditions: for %−ΔcGI (percent decrease in cumulative GI): MAP Dominic; for % ΔcGI: vs 3.2% DMSO control.
Another assay deals with MAP ATCC 19698 (bovine). It is filed as cell-based, Mycobacterium avium subspecies paratuberculosis. Conditions: for %-ΔcGI: Example 5; for % ΔcGI: Bovine MAP 19698, vs 3.2% DMSO control.
The next assay has as its system M. avium ATCC 25291. In kind it is cell-based, M. avium subspecies avium. Conditions: for %-ΔcGI / effect on growth, in words: M. avium ATCC 25291; for %-ΔcGI: Example 5; for % ΔcGI: M. avium 25291, vs 3.2% DMSO control.
The subject of another assay is M. avium 101. It is filed as cell-based, M. avium subspecies avium. Conditions: for %-ΔcGI: Example 5; for % ΔcGI: vs 3.2% DMSO control.
Assay [2] relates to MAP 303 (ruminant with Johne's disease). The experiment in a line: Radiometric BACTEC growth inhibition, MAP 303. Conditions: Bovine MAP 303, vs 3.2% DMSO control. In kind it is cell-based, Mycobacterium avium subspecies paratuberculosis.
The subject of assay [3] is MAP UCF 4, isolated from human with Crohn's disease. The experiment in a line: Radiometric BACTEC growth inhibition, MAP UCF4. It is filed as cell-based, Mycobacterium avium subspecies paratuberculosis. Conditions: for % ΔcGI: Human MAP UCF4, vs 3.2% DMSO control.
The test system of the next assay is MAP. The assay can be described thus: Growth inhibition of MAP (strain not stated or MAP strains in general). Conditions: for effect on growth of MAP, in words: MAP strains in general; for %−ΔcGI (percent decrease in cumulative GI): Example 3, strain not stated.
[4] abbreviates: 1 μg/ml, Human MAP Dominic Expt. 1.
Setting [5] is: 1 μg/ml, Human MAP Dominic Expt. 2.
Setting [6] is: 4 μg/ml, Human MAP Dominic Expt. 1.
Setting [7] is: 4 μg/ml, Human MAP Dominic Expt. 2.
Where [8] appears, read: 16 μg/ml, Human MAP Dominic Expt. 1.
The mark [9] stands for this setting: 16 μg/ml, Human MAP Dominic Expt. 2.
[10] abbreviates: 64 μg/ml, Human MAP Dominic Expt. 1.
Where [11] appears, read: 64 μg/ml, Human MAP Dominic Expt. 2.

Regarding `O=C1CCC(N2C(=O)c3ccccc3C2=O)C(=O)N1` (racemic) [Thalidomide (±), thalidomide], the “%-ΔcGI” value in assay [1] (1 μg/ml, MAP Dominic Expt A, Example 5) is reported as −2%; in assay [1] (1 μg/ml, MAP Dominic Expt B, Example 5), 0%; in assay [1] (4 μg/ml, MAP Dominic Expt A, Example 5), −4%; in assay [1] (4 μg/ml, MAP Dominic Expt B, Example 5), −2%; in assay [1] (16 μg/ml, MAP Dominic Expt A, Example 5), −9%; in assay [1] (16 μg/ml, MAP Dominic Expt B, Example 5), −5%. Further, the “%-ΔcGI” value in assay [1] (64 μg/ml, MAP Dominic Expt A, Example 5) is on record as −31%; in assay [1] (64 μg/ml, MAP Dominic Expt B, Example 5), −13%; in the assay with MAP ATCC 19698 (bovine) (1 μg/ml, MAP ATCC 19698) it was 4%; in the assay with MAP ATCC 19698 (bovine) (4 μg/ml, MAP ATCC 19698), 8%; in the assay on MAP ATCC 19698 (bovine) (16 μg/ml, MAP ATCC 19698), −7%; in the assay on MAP ATCC 19698 (bovine) (64 μg/ml, MAP ATCC 19698) it was −26%. Further, the “%-ΔcGI” value is reported as 34% in the assay with M. avium ATCC 25291 (1 μg/ml); 37% with M. avium ATCC 25291 (4 μg/ml); 28% in the assay with M. avium ATCC 25291 (16 μg/ml); 25% in the assay with M. avium ATCC 25291 (64 μg/ml); −20% with M. avium 101 (1 μg/ml); −5% in the assay on M. avium 101 (4 μg/ml). In addition, the “%-ΔcGI” value is listed as 6% in the assay on M. avium 101 (16 μg/ml) and −14% in the assay on M. avium 101 (64 μg/ml). In addition, the “%−ΔcGI (percent decrease in cumulative GI)” value in assay [1] (64 μg/ml) stood at 31%; in the assay on MAP ATCC 19698 (bovine) (64 μg/ml, MAP ATCC 19698) it was 26%. The “effect on growth, in words” value in the assay with M. avium ATCC 25291 and with M. avium 101 was “no dose-dependent inhibition” throughout.
Consider `Nc1ccc(O)c(C(=O)O)c1` [5-ASA, 5-aminosalicylic acid], for which, in the assay on MAP ATCC 19698 (bovine) (MAP ATCC 19698), the “effect on proliferation / cumulative growth index, in words” value is listed as “inhibited the proliferation of MAP (ATCC 19698) in a dose-dependent manner”. Further, the “effect on growth, in words” value with M. avium 101 is “little effect”.
`CC(C)/N=c1\cc2n(-c3ccc(Cl)cc3)c3ccccc3nc-2cc1Nc1ccc(Cl)cc1` [Clofazimine, clofazimine]: the “% ΔcGI” value in assay [1] (setting [4]), in assay [1] (setting [5]), in assay [1] (setting [6]), in assay [1] (setting [7]), in assay [1] (setting [8]) and in assay [1] (setting [9]) was −99% each time. Moreover, the “% ΔcGI” value (in assay [1] (setting [10]); in assay [1] (setting [11]); in the assay on MAP ATCC 19698 (bovine) (1 μg/ml); with MAP ATCC 19698 (bovine) (4 μg/ml); with MAP ATCC 19698 (bovine) (16 μg/ml); in the assay with MAP ATCC 19698 (bovine) (64 μg/ml)) was −99% each time. The “% ΔcGI” value with M. avium ATCC 25291 (1 μg/ml) is on record as −98%; in the assay on M. avium ATCC 25291 (4 μg/ml) it was −98%; in the assay with M. avium ATCC 25291 (16 μg/ml), −98%; with M. avium ATCC 25291 (64 μg/ml) it was −99%; in assay [2] (1 μg/ml), −99%; in assay [2] (4 μg/ml) it was −99%. In addition, the “% ΔcGI” value in assay [2] (16 μg/ml) is given as −99%; in assay [2] (64 μg/ml), −99%; with M. avium 101 (1 μg/ml), −98%; in the assay on M. avium 101 (4 μg/ml), −98%; in the assay with M. avium 101 (16 μg/ml), −98%; in the assay on M. avium 101 (64 μg/ml) it was −99%. Besides, the “% ΔcGI” value in assay [3] (1 μg/ml), in assay [3] (4 μg/ml), in assay [3] (16 μg/ml) and in assay [3] (64 μg/ml) was −99% each time. For the same compound, the “%−ΔcGI (percent decrease in cumulative GI)” value in assay [1] (at 0.5 (concentration unit not given)) was found to be 97%.
As for `CO[C@H]1C[C@@H]2CC[C@@H](C)[C@@](O)(O2)C(=O)C(=O)N2CCCC[C@H]2C(=O)O[C@H]([C@H](C)C[C@@H]2CC[C@@H](O)[C@H](OC)C2)CC(=O)[C@H](C)/C=C(\C)[C@@H](O)[C@@H](OC)C(=O)[C@H](C)C[C@H](C)/C=C/C=C/C=C/1C` [Rapamycin, sirolimus (rapamycin)], the “% ΔcGI” value in assay [1] (setting [4]) is 21%; in assay [1] (setting [5]), 0%; in assay [1] (setting [6]), 13%; in assay [1] (setting [7]) it was −7%; in assay [1] (setting [8]), −10%; in assay [1] (setting [9]) it was −9%. The “% ΔcGI” value in assay [1] (setting [10]) is recorded as −58%; in assay [1] (setting [11]), −44%; with MAP ATCC 19698 (bovine) (1 μg/ml), −3%; in the assay with MAP ATCC 19698 (bovine) (4 μg/ml), −1%; in the assay on MAP ATCC 19698 (bovine) (16 μg/ml), −18%; with MAP ATCC 19698 (bovine) (64 μg/ml), −43%. Besides, the “% ΔcGI” value in the assay on M. avium ATCC 25291 (1 μg/ml) is recorded as 10%; in the assay on M. avium ATCC 25291 (4 μg/ml), 7%; in the assay with M. avium ATCC 25291 (16 μg/ml) it was 11%; with M. avium ATCC 25291 (64 μg/ml) it was −18%; in assay [2] (1 μg/ml) it was 4%; in assay [2] (4 μg/ml), −11%. Besides, the “% ΔcGI” value in assay [2] (16 μg/ml) was −15%; in assay [2] (64 μg/ml) it was −39%; with M. avium 101 (1 μg/ml), −19%; in the assay on M. avium 101 (4 μg/ml) it was −7%; with M. avium 101 (16 μg/ml), −28%; in the assay with M. avium 101 (64 μg/ml), −39%. For the same compound, the “% ΔcGI” value in assay [3] (1 μg/ml) is −14%; in assay [3] (4 μg/ml) it was −9%; in assay [3] (16 μg/ml) it was −29%; in assay [3] (64 μg/ml) it was −76%. The “effect on growth, in words” value in the assay with M. avium ATCC 25291 is given as “no inhibition; also recorded: no effect”. Further, in assay [3] (64 μg/ml, MAP UCF 4), the “%−ΔcGI (percent decrease in cumulative GI)” value is listed as 76%. For the same compound, the “inhibition, in words” value in assay [3] (lower concentrations (1 and 16 μg/ml), MAP UCF 4) is given as “no inhibition”.
Take `O=C1CCC(N2C(=O)c3ccccc3C2=O)C(=O)N1` (stereo not drawn) [Thalidomide (+), thalidomide]: the “effect on growth of MAP, in words” value with MAP was “more inhibitory than thalidomide (−)”. Also, the “%-ΔcGI” value in assay [1] (1 μg/ml, MAP (Dominic), Table 4) is reported as −4%; in assay [1] (4 μg/ml, MAP (Dominic), Table 4), 1%; in assay [1] (16 μg/ml, MAP (Dominic), Table 4) it was −14%; in assay [1] (64 μg/ml, MAP (Dominic), Table 4), −58%; in the assay on M. avium 101 (1 μg/ml), 4%; in the assay with M. avium 101 (4 μg/ml) it was −5%. Moreover, the results for the “%-ΔcGI” value in the assay with M. avium 101 (16 μg/ml) and in the assay with M. avium 101 (64 μg/ml) were 16% and −19%, respectively.
In the case of `CC1(C)S[C@@H]2[C@H](NC(=O)[C@H](N)c3ccccc3)C(=O)N2[C@H]1C(=O)O` [ampicillin], in the assay on MAP (32 μg/ml), the “%−ΔcGI (percent decrease in cumulative GI)” value is given as 21%.
For the compound `CC[C@H]1OC(=O)[C@H](C)[C@@H](O[C@H]2C[C@@](C)(OC)[C@@H](O)[C@H](C)O2)[C@H](C)[C@@H](O[C@@H]2O[C@H](C)C[C@H](N(C)C)[C@H]2O)[C@](C)(OC)C[C@@H](C)C(=O)[C@H](C)[C@@H](O)[C@]1(C)O` [clarithromycin], the “%−ΔcGI (percent decrease in cumulative GI)” value in the assay with MAP (0.5 μg/ml) is recorded as ≥ 86%; in the assay with MAP ATCC 19698 (bovine) (4 μg/ml, MAP 19698, Example 3), ~80%. In addition, the “effect on growth, in words” value in the assay on M. avium ATCC 25291 is “no evidence of growth”.
`CN(Cc1cnc2nc(N)nc(N)c2n1)c1ccc(C(=O)N[C@@H](CCC(=O)O)C(=O)O)cc1` [methotrexate]: the “%−ΔcGI (percent decrease in cumulative GI)” value with MAP (2 μg/ml) is 40%; in the assay with MAP (4 μg/ml) it was ≥ 75%. Further, the “effect on growth of MAP, in words” value with MAP is “inhibit the growth kinetics of MAP”.
Take `Nc1ccc(C(=O)O)c(O)c1` [p-aminosalicylic acid]: the “effect on proliferation / cumulative growth index, in words” value in the assay with MAP ATCC 19698 (bovine) (MAP ATCC 19698) is given as “inhibited the proliferation of MAP (ATCC 19698) in a dose-dependent manner”.
In the case of `Nc1ccc(S(=O)(=O)Nc2ccccn2)cc1` [sulfapyridine], the “effect on proliferation / cumulative growth index, in words” value in the assay on MAP ATCC 19698 (bovine) (MAP ATCC 19698) was “little effect on the cumulative growth index of MAP”. In addition, the “effect on growth, in words” value in the assay on M. avium 101 is given as “inhibited M. avium 101 in a dose-dependent manner”.
With `O=C(O)c1cc(/N=N/c2ccc(S(=O)(=O)Nc3ccccn3)cc2)ccc1O` [sulfasalazine], the “effect on proliferation / cumulative growth index, in words” value in the assay with MAP ATCC 19698 (bovine) (MAP ATCC 19698) was “little effect on the cumulative growth index of MAP”.
